# Data reported in US12662489B2 (Sitryx Therapeutics Limited, priority 2023, dated 2026).
# Tests used:
# [1] = molecular target: T1, MTHFD2 recombinant human enzyme (Homo sapiens, UniProt P13995); assay: MTHFD2 inhibition assay (NAD(P)H-Glo luminescence); conditions: for MTHFD1/MTHFD2 IC50 ratio: selectivity of MTHFD2 inhibition over MTHFD1, band
# T1 sequence (P13995 36-350): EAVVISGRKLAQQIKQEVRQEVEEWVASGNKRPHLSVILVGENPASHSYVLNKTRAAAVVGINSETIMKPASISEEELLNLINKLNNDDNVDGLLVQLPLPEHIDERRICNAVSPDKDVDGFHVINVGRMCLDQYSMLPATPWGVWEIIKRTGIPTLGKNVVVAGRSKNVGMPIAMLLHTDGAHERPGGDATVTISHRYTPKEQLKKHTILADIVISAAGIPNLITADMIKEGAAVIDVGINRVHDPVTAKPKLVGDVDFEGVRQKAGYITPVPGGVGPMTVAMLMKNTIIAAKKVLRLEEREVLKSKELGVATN
# [2] = molecular target: T2, MTHFD1 recombinant human enzyme (Homo sapiens, UniProt P11586); assay: MTHFD1 inhibition assay (NAD(P)H-Glo luminescence); conditions: MTHFD1 IC50, recombinant human enzyme 200 nM, NADP, band
# T2 sequence (P11586 2-291 limits assumed): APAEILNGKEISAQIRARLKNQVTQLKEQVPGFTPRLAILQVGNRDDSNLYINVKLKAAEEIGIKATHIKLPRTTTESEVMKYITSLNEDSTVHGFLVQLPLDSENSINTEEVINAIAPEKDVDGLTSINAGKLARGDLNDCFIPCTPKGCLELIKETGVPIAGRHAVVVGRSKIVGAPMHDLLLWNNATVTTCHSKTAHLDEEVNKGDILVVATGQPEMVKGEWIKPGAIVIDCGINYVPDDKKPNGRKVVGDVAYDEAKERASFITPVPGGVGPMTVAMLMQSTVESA
Structure (SMILES),IC50 [1],MTHFD1/MTHFD2 IC50 ratio [1],IC50 [2]
"Cc1c(N2CCN3CCOC[C@H]3C2)ccc2c3c(c(=O)oc12)CN(C(=O)c1ccc(C(=O)NS(=O)(=O)N2CCCC2)c(OC2CCC2)c1)CC3 [Example 19, (R)-2-cyclobutoxy-4-(8-(hexahydropyrazino[2,1-c][1,4]oxazin-8(1H)-yl)-7-methyl-5-oxo-1,3,4,5-tetrahydro-2H-chromeno[3,4-c]pyridine-3-carbonyl)-N-(pyrrolidin-1-ylsulfonyl)benzamide]",0.1 to 1 µM,F (<3),0.1 to 1 µM
"COC[C@H]1CN(c2cc(C)c3c4c(c(=O)oc3c2C)CN(C(=O)c2ccc(C(=O)NS(=O)(=O)N(C)C)c(N(C)C3CCC3)c2F)CC4)CCN1C [Example 39, (R)-2-(cyclobutyl(methyl)amino)-N-(N,N-dimethylsulfamoyl)-3-fluoro-4-(8-(3-(methoxymethyl)-4-methylpiperazin-1-yl)-7,10-dimethyl-5-oxo-1,3,4,5-tetrahydro-2H-chromeno[3,4-c]pyridine-3-carbonyl)benzamide]",0.001 to 0.01 µM,G (^ 3 to 9.0),0.01 to 0.1 µM
"COC[C@H]1CN(c2cc(C)c3c4c(c(=O)oc3c2C)CN(C(=O)c2cc(C(=O)NS(=O)(=O)N3CCCC3)cc(OC3CCC3)c2F)CC4)CCN1C [Example 166, (R)-3-cyclobutoxy-4-fluoro-5-(8-(3-(methoxymethyl)-4-methylpiperazin-1-yl)-7,10-dimethyl-5-oxo-1,3,4,5-tetrahydro-2H-chromeno[3,4-c]pyridine-3-carbonyl)-N-(pyrrolidin-1-ylsulfonyl)benzamide]",0.1 to 1 µM,G (^ 3 to 9.0),> 5 µM
"COC[C@H]1CN(c2ccc3c4c(c(=O)oc3c2C)CN(C(=O)c2ccc(C(=O)NS(=O)(=O)C3(C)CC3)c(O[C@@H]3C[C@@H]5C[C@@H]5C3)c2F)CC4)CCN1C [Example 59, 2-(((1R,3r,5S)-bicyclo[3.1.0]hexan-3-yl)oxy)-3-fluoro-4-(8-((R)-3-(methoxymethyl)-4-methylpiperazin-1-yl)-7-methyl-5-oxo-1,3,4,5-tetrahydro-2H-chromeno[3,4-c]pyridine-3-carbonyl)-N-((1-methylcyclopropyl)sulfonyl)benzamide]",0.001 to 0.01 µM,F (<3),0.001 to 0.01 µM
CCOc1c(C(=O)NS(=O)(=O)N2C3CCCC2CC3)ccc(C(=O)N2CCc3c(c(=O)oc4c(C)c(N5CCN(C)[C@@H](COC)C5)ccc34)C2)c1F [Example 236],0.01 to 0.1 µM,F (<3),0.01 to 0.1 µM
"COC[C@H]1CN(c2cc(C)c3c4c(c(=O)oc3c2C)CN(C(=O)c2ccc(C(=O)NS(=O)(=O)C3(C)CC3)c(N3CCCC(F)(F)C3)c2)CC4)CCN1C [Example 75, (R)-2-(3,3-difluoropiperidin-1-yl)-4-(8-(3-(methoxymethyl)-4-methylpiperazin-1-yl)-7,10-dimethyl-5-oxo-1,3,4,5-tetrahydro-2H-chromeno[3,4-c]pyridine-3-carbonyl)-N-((1-methylcyclopropyl)sulfonyl)benzamide]",0.001 to 0.01 µM,G (^ 3 to 9.0),0.001 to 0.01 µM
"COC[C@H]1CN(c2ccc3c4c(c(=O)oc3c2Cl)CN(C(=O)c2ccc(C(=O)NS(=O)(=O)N3CCCC3)c(OC3CCCC3)c2F)CC4)CCN1C [Example 6, (R)-4-(7-chloro-8-(3-(methoxymethyl)-4-methylpiperazin-1-yl)-5-oxo-1,3,4,5-tetrahydro-2H-chromeno[3,4-c]pyridine-3-carbonyl)-2-(cyclopentyloxy)-3-fluoro-N-(pyrrolidin-1-ylsulfonyl)benzamide]",0.01 to 0.1 µM,F (<3),0.001 to 0.01 µM
"CCOc1c(C(=O)NS(=O)(=O)N2C3CCC2CC3)ccc(C(=O)N2CCc3c(c(=O)oc4c(CC)c(N5CCN(C)[C@@H](COC)C5)ccc34)C2)c1F [Example 215, (R)-N-((7-azabicyclo[2.2.1]heptan-7-yl)sulfonyl)-2-ethoxy-4-(7-ethyl-8-(3-(methoxymethyl)-4-methylpiperazin-1-yl)-5-oxo-1,3,4,5-tetrahydro-2H-chromeno[3,4-c]pyridine-3-carbonyl)-3-fluorobenzamide]",0.1 to 1 µM,F (<3),0.01 to 0.1 µM

# Further lines, results first:
IC50 [1],MTHFD1/MTHFD2 IC50 ratio [1],IC50 [2],Structure (SMILES)
0.01 to 0.1 µM,H (>9.0 to 30),0.1 to 1 µM,"COC[C@H]1CN(c2cc(Cl)c3c4c(c(=O)oc3c2C)CN(C(=O)c2cc(N(C)C)c(C(=O)NS(=O)(=O)N(C3CC3)C3CC3)cc2F)CC4)CCN1C [Example 277, (R)-4-(10-chloro-8-(3-(methoxymethyl)-4-methylpiperazin-1-yl)-7-methyl-5-oxo-1,3,4,5-tetrahydro-2H-chromeno[3,4-c]pyridine-3-carbonyl)-N-(N,N-dicyclopropylsulfamoyl)-2-(dimethylamino)-5-fluorobenzamide]"
0.001 to 0.01 µM,H (>9.0 to 30),0.01 to 0.1 µM,"CCOc1c(C(=O)NS(=O)(=O)N2CCCC2)ccc(C(=O)N2CCc3c(c(=O)oc4c(C)c(N5CCN(C)[C@@H](COC)C5)cc(Cl)c34)C2)c1F [Example 258, (R)-4-(10-chloro-8-(3-(methoxymethyl)-4-methylpiperazin-1-yl)-7-methyl-5-oxo-1,3,4,5-tetrahydro-2H-chromeno[3,4-c]pyridine-3-carbonyl)-2-ethoxy-3-fluoro-N-(pyrrolidin-1-ylsulfonyl)benzamide]"
0.01 to 0.1 µM,–,0.01 to 0.1 µM,"COC[C@H]1CN(c2cc(C)c3c4c(c(=O)oc3c2C)CN(C(=O)c2ccc(C(=O)NS(=O)(=O)N(C)C)c(OC3C5CC6CC(C5)CC3C6)c2F)CC4)CCN1C (stereo partly drawn) [Example 90, 2-((adamantan-2-yl)oxy)-N-(N,N-dimethylsulfamoyl)-3-fluoro-4-(8-((R)-3-(methoxymethyl)-4-methylpiperazin-1-yl)-7,10-dimethyl-5-oxo-1,3,4,5-tetrahydro-2H-chromeno[3,4-c]pyridine-3-carbonyl)benzamide]"
0.01 to 0.1 µM,F (<3),0.1 to 1 µM,"COC[C@H]1CN(c2cc(C)c3c4c(c(=O)oc3c2C)CN(C(=O)c2ccc(C(=O)NS(=O)(=O)C3(C)CC3)c(N3CCC[C@H]3C)c2)CC4)CCN1C [Example 123, 4-(8-((R)-3-(methoxymethyl)-4-methylpiperazin-1-yl)-7,10-dimethyl-5-oxo-1,3,4,5-tetrahydro-2H-chromeno[3,4-c]pyridine-3-carbonyl)-N-((1-methylcyclopropyl)sulfonyl)-2-((R)-2-methylpyrrolidin-1-yl)benzamide]"
0.01 to 0.1 µM,J (>30),1 to 5 µM,"COC[C@H]1CN(c2cc(Cl)c3c4c(c(=O)oc3c2C)CN(C(=O)c2ccc(C(=O)NS(=O)(=O)N3CCC[C@@H]3COC)c(OC)c2)CC4)CCN1C [Example 288, 4-(10-chloro-8-((R)-3-(methoxymethyl)-4-methylpiperazin-1-yl)-7-methyl-5-oxo-1,3,4,5-tetrahydro-2H-chromeno[3,4-c]pyridine-3-carbonyl)-2-methoxy-N-(((R)-2-(methoxymethyl)pyrrolidin-1-yl)sulfonyl)benzamide]"
